Measurements taken from the NIST ThermoML archive (doi:10.1016/j.jct.2012.09.019).
± gives the expanded uncertainty stated by the source.

Key:
[1] = Crystal
[2] = refractive index (Na D-line) (dimensionless); settings: 293.15 K; 101.33 kPa; Liquid; digital refractometer

Compound	Normal melting temperature ([1]; Heating/Cooling curves) [°C]	refractive index [2]	Normal melting temperature ([1]; heating/cooling curves) [°C]
CCCC(=O)O [butanoic acid]	-5.2 ± 2	1.39808 ± 0.0014	–
C1CCCCC1 [cyclohexane]	6.7 ± 2	1.42631 ± 0.0014	–
CCCCCCC(=O)O [heptanoic acid]	-7.5 ± 2	1.4229 ± 0.0014	–

Continued, values first:

Normal melting temperature ([1]; Heating/Cooling curves) [°C]	refractive index [2]	Normal melting temperature ([1]; heating/cooling curves) [°C]	Compound
18.1 ± 2	1.43461 ± 0.0014	18.0 ± 2	CCCCCCCCCCCCCCCC [hexadecane]
-2.4 ± 2	1.41692 ± 0.0015	–	CCCCCC(=O)O [hexanoic acid]
-34.4 ± 2	1.40857 ± 0.0015	–	CCCCC(=O)O [pentanoic acid]
-20.8 ± 2	1.38682 ± 0.0014	–	CCC(=O)O [propanoic acid]
